{
  "source": "patent US20170190671A1",
  "about": "“BIS(ARYL)CATECHOL DERIVATIVES AS HERBICIDES” (E I DU PONT DE NEMOURS AND COMPANY, priority 2014, published 2017)",
  "experiment_in_all_cases": "Test D preemergence",
  "format_in_all_cases": "in vivo",
  "conditions_in_all_cases": "scale 0 to 100",
  "key": {"[1]": {"system": "Italian ryegrass (Lolium multiflorum)", "in_short": "(§1)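 Visual injury scored 0–100 (0 = no effect, 100 = complete control) against controls 14 to 21 days after treatment in a controlled growth environment. Compounds were applied in surfactant-containing non-phytotoxic solvent, preemergence onto silt loam-sown seeds or postemergence onto 1- to 4-leaf plants.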"}, "[2]": {"system": "bluegrass (annual bluegrass, Poa annua)", "in_short": "as §1"}, "[3]": {"system": "chamomile (scentless chamomile, Matricaria inodora)", "in_short": "as §1"}, "[4]": {"system": "lambsquarters (Chenopodium album)", "in_short": "as §1"}, "[5]": {"system": "green foxtail (Setaria viridis)", "in_short": "as §1"}, "[6]": {"system": "deadnettle (henbit deadnettle, Lamium amplexicaule)", "in_short": "as §1"}, "[7]": {"system": "pigweed (Amaranthus retroflexus)", "in_short": "as §1"}, "[8]": {"system": "oilseed rape (Brassica napus)", "in_short": "as §1"}, "[9]": {"system": "downy bromegrass (Bromus tectorum)", "in_short": "as §1"}, "[10]": {"system": "Russian thistle (Salsola kali)", "in_short": "as §1"}, "[11]": {"system": "galium (catchweed bedstraw, Galium aparine)", "in_short": "as §1"}, "[12]": {"system": "speedwell (bird's-eye speedwell, Veronica persica)", "in_short": "as §1"}, "[13]": {"system": "canarygrass (Phalaris minor)", "in_short": "as §1"}, "[14]": {"system": "wild mustard (Sinapis arvensis)", "in_short": "as §1"}, "[15]": {"system": "wild buckwheat (Polygonum convolvulus)", "in_short": "as §1"}, "[16]": {"system": "blackgrass (Alopecurus myosuroides)", "in_short": "as §1"}, "[17]": {"system": "field violet (Viola arvensis)", "in_short": "as §1"}, "[18]": {"system": "windgrass (Apera spica-venti)", "in_short": "as §1"}, "[19]": {"system": "winter barley (Hordeum vulgare)", "in_short": "as §1"}, "[20]": {"system": "cutleaf geranium (Geranium dissectum)", "in_short": "as §1"}, "[21]": {"system": "field poppy (Papaver rhoeas)", "in_short": "as §1"}},
  "data": [
    {"molecule": "FC(F)(F)c1cnc(Oc2c(Br)cccc2Oc2ncc(Cl)cn2)nc1", "note": "[Compound 24]", "values": [
      {"measurement": "Plant response rating, Ryegrass, Italian", "setting": "[1]; 16 g ai/ha", "result": 10},
      {"measurement": "Plant response rating, Ryegrass, Italian", "setting": "[1]; 31 g ai/ha", "result": 15},
      {"measurement": "Plant response rating, Ryegrass, Italian", "setting": "[1]; 62 g ai/ha", "result": 25},
      {"measurement": "Plant response rating, Ryegrass, Italian", "setting": "[1]; 125 g ai/ha", "result": 65},
      {"measurement": "Plant response rating, Bluegrass", "setting": "[2]; 16 g ai/ha", "result": 15},
      {"measurement": "Plant response rating, Bluegrass", "setting": "[2]; 31 g ai/ha", "result": 20},
      {"measurement": "Plant response rating, Bluegrass", "setting": "[2]; 62 g ai/ha", "result": 25},
      {"measurement": "Plant response rating, Bluegrass", "setting": "[2]; 125 g ai/ha", "result": 35},
      {"measurement": "Plant response rating, Chamomile", "setting": "[3]; 16 g ai/ha", "result": 55},
      {"measurement": "Plant response rating, Chamomile", "setting": "[3]; 31 g ai/ha", "result": 100},
      {"measurement": "Plant response rating, Chamomile", "setting": "[3]; 62 g ai/ha", "result": 100},
      {"measurement": "Plant response rating, Chamomile", "setting": "[3]; 125 g ai/ha", "result": 100},
      {"measurement": "Plant response rating, Lambsquarters", "setting": "[4]; 16 g ai/ha", "result": 100},
      {"measurement": "Plant response rating, Lambsquarters", "setting": "[4]; 31 g ai/ha", "result": 100},
      {"measurement": "Plant response rating, Lambsquarters", "setting": "[4]; 62 g ai/ha", "result": 100},
      {"measurement": "Plant response rating, Lambsquarters", "setting": "[4]; 125 g ai/ha", "result": 100},
      {"measurement": "Plant response rating, Foxtail, Green", "setting": "[5]; 16 g ai/ha", "result": 10},
      {"measurement": "Plant response rating, Foxtail, Green", "setting": "[5]; 31 g ai/ha", "result": 35},
      {"measurement": "Plant response rating, Foxtail, Green", "setting": "[5]; 62 g ai/ha", "result": 75},
      {"measurement": "Plant response rating, Foxtail, Green", "setting": "[5]; 125 g ai/ha", "result": 85},
      {"measurement": "Plant response rating, Deadnettle", "setting": "[6]; 16 g ai/ha", "result": 30},
      {"measurement": "Plant response rating, Deadnettle", "setting": "[6]; 31 g ai/ha", "result": 60},
      {"measurement": "Plant response rating, Deadnettle", "setting": "[6]; 62 g ai/ha", "result": 100},
      {"measurement": "Plant response rating, Deadnettle", "setting": "[6]; 125 g ai/ha", "result": 100},
      {"measurement": "Plant response rating, Pigweed", "setting": "[7]; 16 g ai/ha", "result": 60},
      {"measurement": "Plant response rating, Pigweed", "setting": "[7]; 31 g ai/ha", "result": 100},
      {"measurement": "Plant response rating, Pigweed", "setting": "[7]; 62 g ai/ha", "result": 100},
      {"measurement": "Plant response rating, Pigweed", "setting": "[7]; 125 g ai/ha", "result": 100},
      {"measurement": "Plant response rating, Oilseed Rape", "setting": "[8]; 16 g ai/ha", "result": 0},
      {"measurement": "Plant response rating, Oilseed Rape", "setting": "[8]; 31 g ai/ha", "result": 15},
      {"measurement": "Plant response rating, Oilseed Rape", "setting": "[8]; 62 g ai/ha", "result": 20},
      {"measurement": "Plant response rating, Oilseed Rape", "setting": "[8]; 125 g ai/ha", "result": 80},
      {"measurement": "Plant response rating, Bromegrass, Downy", "setting": "[9]; 16 g ai/ha", "result": 20},
      {"measurement": "Plant response rating, Bromegrass, Downy", "setting": "[9]; 31 g ai/ha", "result": 35},
      {"measurement": "Plant response rating, Bromegrass, Downy", "setting": "[9]; 62 g ai/ha", "result": 35},
      {"measurement": "Plant response rating, Bromegrass, Downy", "setting": "[9]; 125 g ai/ha", "result": 45},
      {"measurement": "Plant response rating, Russian Thistle", "setting": "[10]; 16 g ai/ha", "result": 0},
      {"measurement": "Plant response rating, Russian Thistle", "setting": "[10]; 31 g ai/ha", "result": 0},
      {"measurement": "Plant response rating, Russian Thistle", "setting": "[10]; 62 g ai/ha", "result": 35},
      {"measurement": "Plant response rating, Russian Thistle", "setting": "[10]; 125 g ai/ha", "result": 80},
      {"measurement": "Plant response rating, Galium", "setting": "[11]; 16 g ai/ha", "result": 0},
      {"measurement": "Plant response rating, Galium", "setting": "[11]; 31 g ai/ha", "result": 25},
      {"measurement": "Plant response rating, Galium", "setting": "[11]; 62 g ai/ha", "result": 85},
      {"measurement": "Plant response rating, Galium", "setting": "[11]; 125 g ai/ha", "result": 70},
      {"measurement": "Plant response rating, Speedwell", "setting": "[12]; 16 g ai/ha", "result": 35},
      {"measurement": "Plant response rating, Speedwell", "setting": "[12]; 31 g ai/ha", "result": 100},
      {"measurement": "Plant response rating, Speedwell", "setting": "[12]; 62 g ai/ha", "result": 100},
      {"measurement": "Plant response rating, Speedwell", "setting": "[12]; 125 g ai/ha", "result": 100},
      {"measurement": "Plant response rating, Canarygrass", "setting": "[13]; 16 g ai/ha", "result": 25},
      {"measurement": "Plant response rating, Canarygrass", "setting": "[13]; 31 g ai/ha", "result": 30},
      {"measurement": "Plant response rating, Canarygrass", "setting": "[13]; 62 g ai/ha", "result": 35},
      {"measurement": "Plant response rating, Canarygrass", "setting": "[13]; 125 g ai/ha", "result": 45},
      {"measurement": "Plant response rating, Mustard, Wild", "setting": "[14]; 16 g ai/ha", "result": 15},
      {"measurement": "Plant response rating, Mustard, Wild", "setting": "[14]; 31 g ai/ha", "result": 35},
      {"measurement": "Plant response rating, Mustard, Wild", "setting": "[14]; 62 g ai/ha", "result": 55},
      {"measurement": "Plant response rating, Mustard, Wild", "setting": "[14]; 125 g ai/ha", "result": 100},
      {"measurement": "Plant response rating, Buckwheat, Wild", "setting": "[15]; 16 g ai/ha", "result": 10},
      {"measurement": "Plant response rating, Buckwheat, Wild", "setting": "[15]; 62 g ai/ha", "result": 20},
      {"measurement": "Plant response rating, Buckwheat, Wild", "setting": "[15]; 125 g ai/ha", "result": 100},
      {"measurement": "Plant response rating, Blackgrass", "setting": "[16]; 16 g ai/ha", "result": 15},
      {"measurement": "Plant response rating, Blackgrass", "setting": "[16]; 31 g ai/ha", "result": 25},
      {"measurement": "Plant response rating, Blackgrass", "setting": "[16]; 62 g ai/ha", "result": 35},
      {"measurement": "Plant response rating, Blackgrass", "setting": "[16]; 125 g ai/ha", "result": 55},
      {"measurement": "Plant response rating, Field Violet", "setting": "[17]; 16 g ai/ha", "result": 20},
      {"measurement": "Plant response rating, Field Violet", "setting": "[17]; 31 g ai/ha", "result": 20},
      {"measurement": "Plant response rating, Field Violet", "setting": "[17]; 62 g ai/ha", "result": 75},
      {"measurement": "Plant response rating, Field Violet", "setting": "[17]; 125 g ai/ha", "result": 100},
      {"measurement": "Plant response rating, Windgrass", "setting": "[18]; 16 g ai/ha", "result": 5},
      {"measurement": "Plant response rating, Windgrass", "setting": "[18]; 31 g ai/ha", "result": 15},
      {"measurement": "Plant response rating, Windgrass", "setting": "[18]; 62 g ai/ha", "result": 25},
      {"measurement": "Plant response rating, Windgrass", "setting": "[18]; 125 g ai/ha", "result": 85},
      {"measurement": "Plant response rating, Barley, Winter", "setting": "[19]; 16 g ai/ha", "result": 10},
      {"measurement": "Plant response rating, Barley, Winter", "setting": "[19]; 31 g ai/ha", "result": 15},
      {"measurement": "Plant response rating, Barley, Winter", "setting": "[19]; 62 g ai/ha", "result": 25},
      {"measurement": "Plant response rating, Barley, Winter", "setting": "[19]; 125 g ai/ha", "result": 70},
      {"measurement": "Plant response rating, Geranium, Cutleaf", "setting": "[20]; 16 g ai/ha", "result": 75},
      {"measurement": "Plant response rating, Geranium, Cutleaf", "setting": "[20]; 31 g ai/ha", "result": 75},
      {"measurement": "Plant response rating, Geranium, Cutleaf", "setting": "[20]; 62 g ai/ha", "result": 90},
      {"measurement": "Plant response rating, Geranium, Cutleaf", "setting": "[20]; 125 g ai/ha", "result": 100},
      {"measurement": "Plant response rating, Field Poppy", "setting": "[21]; 16 g ai/ha", "result": 75},
      {"measurement": "Plant response rating, Field Poppy", "setting": "[21]; 31 g ai/ha", "result": 100},
      {"measurement": "Plant response rating, Field Poppy", "setting": "[21]; 62 g ai/ha", "result": 100},
      {"measurement": "Plant response rating, Field Poppy", "setting": "[21]; 125 g ai/ha", "result": 100}
    ]}
  ]
}
